pIC50: −log10 of the molar value.
What follows are compounds tested on HIV-1 (Ba-L or IIIB) infection of HOS cell line (expressing hCXCR4/hCCR5/hCD4/pHIV-LTR-luciferase) (assay: HOS HIV-1 Infectivity Assay). Conditions: Human immunodeficiency virus 1, HOS, virus strain not given, read-out: Activity Level.
Assay type: cell-based
Method: Compounds were profiled against two HIV-1 viruses, the M-tropic (CCR5 utilizing) Ba-L strain and the T-tropic (CXCR4 utilizing) IIIB strain. Ba-L was propagated in either peripheral blood lymphocytes or SupT1/CCR5+/CXCR4+ cells. IIIB was propagated in peripheral blood lymphocytes. Compounds were tested for their ability to block infection of the HOS cell line (expressing hCXCR4/hCCR5/hCD4/pHIV-LTR-luciferase) by either HIV-1 Ba-L or HIV-1 IIIB. Compound cytotoxicity was also examined in the absence of virus addition.
HOS cells (expressing hCXCR4/hCCR5/hCD4/pHIV-LTR-luciferase) were harvested and diluted in Dulbeccos modified Eagles media supplemented with 2% FCS to a concentration of 120,000 cells/ml. The cells were plated into 96-well plates (50 μl per well) and the plates were placed in a tissue culture incubator ([…]; 5% CO2195% air) for a period of 24 h.
Subsequently, 50 μl of the desired drug solution (2 times the final concentration) was added to each well and the plates were returned to the tissue culture incubator (370° C.; 5% CO2/95% air) for 1 h. Following this incubation, 60 μl of diluted virus (4 times the final concentration) was added to 60 μl of 2× the final desired concentration of the compound and 100 μl of this compound/virus mix was added to each well (approximately 2 million RLU per well of virus). The plates were returned to the tissue culture incubator (370° C.; 5% CO2/95% air) and were incubated for a further 96 h.
Following this incubation the endpoint for the virally infected cultures was quantified following addition of Steady-Glo Luciferase assay system reagent (Promega, Madison, Wis.). Cell viability or non-infected cultures was measured using a CellTiter-Glo luminescent cell viability assay system (Promega, Madison, Wis.). All luminescent readouts are performed on a Topcount luminescence detector (Packard, Meridien, Conn.).

| Structure (SMILES) | pIC50 |
| --- | --- |
| CCCN(Cc1cn2c(N3CCC(N(C)C)CC3)cccc2n1)[C@H]1CCCc2cccnc21 [Example 64, (8S)—N-({5-[4-(dimethylamino)-1-piperidinyl]imidazo[1,2-a]pyridin-2-yl}methyl)-N-propyl-5,6,7,8-tetrahydro-8-quinolinamine] | > 7.00 |
| CCN1CCN(c2cccc3nc(CN(C)[C@H]4CCCc5cccnc54)c(Cl)n23)CC1 [Example 73, (8S)—N-{[3-Chloro-5-(4-ethyl-1-piperazinyl)imidazo[1,2-a]pyridin-2-yl]methyl}-N-methyl-5,6,7,8-tetrahydro-8-quinolinamine] | > 7.00 |
| CCN(Cc1nc2cccc(N3CCN(C)CC3)n2c1C(N)=O)[C@H]1CCCc2cccnc21 [Example 22, 2-({Ethyl[(8S)-5,6,7,8-tetrahydro-8-quinolinyl]amino}methyl)-5-(4-methyl-1-piperazinyl)imidazo[1,2-a]pyridine-3-carboxamide] | > 7.00 |
| CN(Cc1nc2cccc(N3CCN4CCC[C@H]4C3)n2c1Cl)[C@H]1CCCc2cccnc21 [Example 81, (8S)—N-({3-Chloro-5-[(8aS)-hexahydropyrrolo[1,2-a]pyrazin-2(1H)-yl]imidazo[1,2-a]pyridin-2-yl}methyl)-N-methyl-5,6,7,8-tetrahydro-8-quinolinamine] | > 7.00 |
| C[C@H]1CN(c2cccc3nc(CN(C)[C@H]4CCCc5cccnc54)c(Cl)n23)CCN1C [Example 79, (8S)—N-([3-Chloro-5-[(3S)-3,4-dimethyl-1-piperazinyl]imidazo[1,2-a]pyridin-2-yl]methyl)-N-methyl-5,6,7,8-tetrahydro-8-quinolinamine] | > 7.00 |
| CN1CCN(c2cccc3nc(CN(C)[C@H]4CCCc5cccnc54)c(Br)n23)CC1 [Example 16, (8S)—N-{[3-Bromo-5-(4-methyl-1-piperazinyl)imidazo[1,2-a]pyridin-2-yl]methyl}-N-methyl-5,6,7,8-tetrahydro-8-quinolinamine] | > 7.00 |
| CC(=O)c1c(CN(C)[C@H]2CCCc3cccnc32)nc2cccc(N3CCN(C)CC3)n12 [Example 14, 1-[5-(4-Methyl-1-piperazinyl)-2-({methyl[(8S)-5,6,7,8-tetrahydro-8-quinolinyl]amino}methyl)imidazo[1,2-a]pyridin-3-yl]ethanone] | > 7.00 |
| CC(C)N(Cc1nc2cccc(N3CCC(N(C)C)CC3)n2c1C(N)=O)[C@H]1CCCc2cccnc21 [Example 71, 5-[4-(dimethylamino)-1-piperidinyl]-2-({(1-methylethyl)[(8S)-5,6,7,8-tetrahydro-8-quinolinyl]amino}methyl)imidazo[1,2-a]pyridine-3-carboxamide] | > 7.00 |
| CN(C)C1CCN(c2cccc3nc(CN(C)[C@H]4CCCc5cccnc54)c(C#N)n23)CC1 [Example 58, 5-[4-(dimethylamino)-1-piperidinyl]-2-({methyl[(8S)-5,6,7,8-tetrahydro-8-quinolinyl]amino}methyl)imidazo[1,2-a]pyridine-3-carbonitrile] | > 7.00 |
| CCCN(Cc1nc2cccc(N3CCN(C)CC3)n2c1Cl)[C@H]1CCCc2cccnc21 [Example 82, (8S)—N-{[3-Chloro-5-(4-methyl-1-piperazinyl)imidazo[1,2-a]pyridin-2-yl]methyl}-N-propyl-5,6,7,8-tetrahydro-8-quinolinamine] | > 7.00 |
| CCN(Cc1nc2cccc(N3CCN(C)CC3)n2c1C#N)[C@H]1CCCc2cccnc21 [Example 21, 2-({Ethyl[(8S)-5,6,7,8-tetrahydro-8-quinolinyl]amino}methyl)-5-(4-methyl-1-piperazinyl)imidazo[1,2-a]pyridine-3-carbonitrile] | > 7.00 |
| CCCN(Cc1nc2cccc(N3CCN(C)CC3)n2c1C#N)[C@H]1CCCc2cccnc21 [Example 25, 5-(4-Methyl-1-piperazinyl)-2-({propyl[(8S)-5,6,7,8-tetrahydro-8-quinolinyl]amino}methyl)imidazo[1,2-a]pyridine-3-carbonitrile] | > 7.00 |
| CN(C)[C@@H]1CCN(c2cccc3nc(CN(Cc4ccccc4)[C@H]4CCCc5cccnc54)c(C#N)n23)C1 [Example 53, 5-[(3R)-3-(Dimethylamino)-1-pyrrolidinyl]-2-({(phenylmethyl)[(8S)-5,6,7,8-tetrahydro-8-quinolinyl]amino}methyl)imidazo[1,2-a]pyridine-3-carbonitrile] | > 7.00 |
| CC(C)N(Cc1nc2cccc(N3CC[C@@H](N(C)C)C3)n2c1C#N)[C@H]1CCCc2cccnc21 [Example 50, 5-[(3R)-3-(Dimethylamino)-1-pyrrolidinyl]-2-({(1-methylethyl)[(8S)-5,6,7,8-tetrahydro-8-quinolinyl]amino}methyl)imidazo[1,2-a]pyridine-3-carbonitrile] | > 7.00 |
| CCCN(Cc1nc2cccc(N3CCC(N(C)C)CC3)n2c1Cl)[C@H]1CCCc2cccnc21 [Example 87, (8S)—N-({3-Chloro-5-[4-(dimethylamino)-1-piperidinyl]imidazo[1,2-a]pyridin-2-yl}methyl)-N-propyl-5,6,7,8-tetrahydro-8-quinolinamine] | > 7.00 |
| CN1CCN(c2cccc3nc(CN(C)[C@H]4CCCc5cccnc54)c(Cl)n23)CC1 [Example 72, (8S)—N-{[3-Chloro-5-(4-methyl-1-piperazinyl)imidazo[1,2-a]pyridin-2-yl]methyl}-N-methyl-5,6,7,8-tetrahydro-8-quinolinamine] | > 7.00 |
| CN1CCCN(c2cccc3nc(CN(C)[C@H]4CCCc5cccnc54)c(Cl)n23)CC1 [Example 76, (8S)—N-{[3-Chloro-5-(4-methylhexahydro-1H-1,4-diazepin-1-yl)imidazo[1,2-a]pyridin-2-yl]methyl}-N-methyl-5,6,7,8-tetrahydro-8-quinolinamine] | > 7.00 |
| CCCN(Cc1nc2cccc(N3CC[C@@H](N(C)C)C3)n2c1C(N)=O)[C@H]1CCCc2cccnc21 [Example 47, 5-[(3R)-3-(Dimethylamino)-1-pyrrolidinyl]-2-({propyl[(8S)-5,6,7,8-tetrahydro-8-quinolinyl]amino}methyl)imidazo[1,2-a]pyridine-3-carboxamide] | > 7.00 |
| CCN(Cc1nc2cccc(N3CC[C@@H](N(C)C)C3)n2c1C(N)=O)[C@H]1CCCc2cccnc21 [Example 43, 5-[(3R)-3-(Dimethylamino)-1-pyrrolidinyl]-2-({ethyl[(8S)-5,6,7,8-tetrahydro-8-quinolinyl]amino}methyl)imidazo[1,2-d]pyridine-3-carboxamide] | > 7.00 |
| CCCN(Cc1nc2cccc(N3CCN[C@@H](C)C3)n2c1Cl)[C@H]1CCCc2cccnc21 [Example 88, (8S)—N-({3-Chloro-5-[(3S)-3-methyl-1-piperazinyl]imidazo[1,2-a]pyridin-2-yl}methyl)-N-propyl-5,6,7,8-tetrahydro-8-quinolinamine] | > 7.00 |
| CN1CCN(c2cccc3nc(CN(C)[C@H]4CCCc5cccnc54)c(C(N)=O)n23)CC1 [Example 18, 5-(4-Methyl-1-piperazinyl)-2-({methyl[(8S)-5,6,7,8-tetrahydro-8-quinolinyl]amino}methyl)imidazo[1,2-a]pyridine-3-carboxamide] | > 7.00 |
| CCN(Cc1nc2cccc(N3CCC(N(C)C)CC3)n2c1C#N)[C@H]1CCCc2cccnc21 [Example 62, 5-[4-(dimethylamino)-1-piperidinyl]-2-({ethyl[(8S)-5,6,7,8-tetrahydro-8-quinolinyl]amino}methyl)imidazo[1,2-a]pyridine-3-carbonitrile] | > 7.00 |
| CC(C)N(Cc1nc2cccc(N3CCN(C)CC3)n2c1C(N)=O)[C@H]1CCCc2cccnc21 [Example 30, 2-([(1-Methylethyl)[(8S)-5,6,7,8-tetrahydro-8-quinolinyl]amino]methyl)-5-(4-methyl-1-piperazinyl)imidazo[1,2-a]pyridine-3-carboxamide] | > 7.00 |
| CCN(Cc1nc2cccc(N3CCC(N(C)C)CC3)n2c1C(N)=O)[C@H]1CCCc2cccnc21 [Example 63, 5-[4-(dimethylamino)-1-piperidinyl]-2-({ethyl[(8S)-5,6,7,8-tetrahydro-8-quinolinyl]amino}methyl)imidazo[1,2-a]pyridine-3-carboxamide] | > 7.00 |
| CCCN(Cc1nc2cccc(N3CCN(C)CC3)n2c1C(N)=O)[C@H]1CCCc2cccnc21 [Example 26, 5-(4-Methyl-1-piperazinyl)-2-({propyl[(8S)-5,6,7,8-tetrahydro-8-quinolinyl]amino}methyl)imidazo[1,2-a]pyridine-3-carboxamide] | > 7.00 |
| CN1CCN(c2cccc3nc(CN(C)[C@H]4CCCc5cccnc54)c(C#N)n23)CC1 [Example 17, 5-(4-Methyl-1-piperazinyl)-2-({methyl[(8S)-5,6,7,8-tetrahydro-8-quinolinyl]amino}methyl)imidazo[1,2-a]pyridine-3-carbonitrile] | > 7.00 |
| CN(C)CCN(C)c1cccc2nc(CN(C)[C@H]3CCCc4cccnc43)c(Cl)n12 [Example 77, N-[3-Chloro-2-({methyl[(8S)-5,6,7,8-tetrahydro-8-quinolinyl]amino}methyl)imidazo[1,2-a]pyridin-5-yl]-N,N′,N′-trimethyl-1,2-ethanediamine] | > 7.00 |

Source: patent publication US20100280010A1, “CHEMICAL COMPOUNDS” (priority 2006, published 2010)
